The compounds below were run against T1, Human AhR (Homo sapiens, UniProt P35869) (assay: hAHR Nuclear Translocation Assay). Details: AhR-EGFP nuclear translocation in Jump-In T-REx HEK293 cells, 45 minutes incubation; class symbols; read-out: Rel EC50.
T1 construct: expressed in transfected cells
T1 sequence (P35869 11-848): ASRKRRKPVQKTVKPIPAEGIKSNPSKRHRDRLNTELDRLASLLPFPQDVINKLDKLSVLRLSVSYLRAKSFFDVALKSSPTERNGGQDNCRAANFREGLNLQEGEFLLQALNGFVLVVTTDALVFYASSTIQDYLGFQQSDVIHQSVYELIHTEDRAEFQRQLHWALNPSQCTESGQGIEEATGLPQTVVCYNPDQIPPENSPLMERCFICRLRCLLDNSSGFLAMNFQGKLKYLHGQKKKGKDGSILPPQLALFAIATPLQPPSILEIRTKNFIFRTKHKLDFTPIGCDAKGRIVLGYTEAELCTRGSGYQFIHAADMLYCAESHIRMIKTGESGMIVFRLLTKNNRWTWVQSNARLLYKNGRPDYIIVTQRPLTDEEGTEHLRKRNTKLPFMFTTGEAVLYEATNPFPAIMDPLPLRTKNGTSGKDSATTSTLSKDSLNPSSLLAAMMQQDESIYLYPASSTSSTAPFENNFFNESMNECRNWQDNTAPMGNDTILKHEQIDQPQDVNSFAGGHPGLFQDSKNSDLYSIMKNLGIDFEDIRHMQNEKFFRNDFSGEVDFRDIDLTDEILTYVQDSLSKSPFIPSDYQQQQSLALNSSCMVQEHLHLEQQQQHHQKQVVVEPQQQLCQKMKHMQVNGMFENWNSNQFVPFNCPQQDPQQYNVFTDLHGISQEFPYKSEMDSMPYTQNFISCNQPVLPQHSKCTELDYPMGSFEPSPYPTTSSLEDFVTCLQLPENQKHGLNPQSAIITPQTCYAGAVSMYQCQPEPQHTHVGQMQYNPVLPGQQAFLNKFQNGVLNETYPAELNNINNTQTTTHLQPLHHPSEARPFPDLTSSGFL
Format: cell-based
Text: The purpose of this assay is to measure the ability of compounds to bind to, activate, and induce the translocation of AhR into the nucleus of a cell for transcription. Stable cell lines were established using Jump-InTM T-RExTM HEK293 Retargeting Kit (Life Technologies). Human AhR cDNA was cloned into the pJTI R4 CMV-TO EGFP vector. The EGFP was cloned to the C-terminal of AHR to form AhR-EGFP chimera. The pJTI R4 CMV-TO AhR-EGFP vector was transfected using FuGENE® HD into Jump-InTM T-RExTM HEK293 cells. Transfected cells were selected using 2.5 mg/ml G418 for 10 to 14 days, then expanded, harvested, and suspended in freeze media (FBS with 8% DMSO) at 2×10^7 cells/ml, and aliquots were stored in liquid nitrogen. One day before the assay date, cells were thawed and resuspended in DMEM with 5% FBS in the presence of 1 μg/ml Doxycycline and plated into ploy-L-Lysine coated […]-384 ULTRA Microplates (Perkin Elmer) at 12,000 to 15,000 cells per well and incubated at 37° C. and 5% CO2 overnight. On the assay date, compound was serially diluted (1:2) into 384-well nunc plates with DMSO using acoustic dispensing (ECHO®). The dose response was a 20-point curve. […] The culture media was damped and 25 μl of DMEM plus 0.1% BSA was added, then 25 μL of compound in DMEM plus 0.1% BSA was added into cell plates. Cells were incubated compounds at 37° C. and 5% CO2 for 45 minutes. The final DMSO concentration was 0.2%. The media was damped after 45 minutes incubation. The cells were fixed with 40 μl of cold MeOH (-20° C.) for 20 minutes. The MeOH was damped and 50 μL of DPBS containing 1 μg/mL Hochst was added into the cell plates. The intensity of EGFP was quantitated by using Opera PHENIX® or OPERETTA® high content image system (Perkin Elmer) with 20× Water Objective and five field per well. The ratio of EGFP fluorescent intensity in nuclear over cytosol was analyzed using a 4-parameter nonlinear logistic equation to determine the potency of AhR agonists.

Row | SMILES | EC50 [nM]
1 | O=C(Nc1ncc(F)cn1)c1cc2c(n3cnnc13)CCC2C1CC1 (single isomer, unassigned) [Example 66, 6-Cyclopropyl-N-(5-fluoropyrimidin-2-yl)-7,8-dihydro-6H-cyclopenta[e][1,2,4] triazolo[4,3-a]pyridine-4-carboxamide] | 1 to 10
2 | CC1CCc2c1cc(C(=O)Nc1cnn(C)n1)c1nncn21 (single isomer, unassigned) [Example 62, 6-Methyl-N-(2-methyl-2H-1,2,3-triazol-4-yl)-7,8-dihydro-6H-cyclopenta[e][1,2,4] triazolo[4,3-a]pyridine-4-carboxamide] | 10 to 50
3 | CCC(C)C1CCc2c1cc(C(=O)Nc1ncc(F)cn1)c1nncn21 (single isomer, unassigned) [Example 60, 6-(sec-butyl)-N-(5-Fluoropyrimidin-2-yl)-7,8-dihydro-6H-cyclopenta[e][1,2,4] triazolo[4,3-a]pyridine-4-carboxamide] | 10 to 50
4 | CC1CCc2c1cc(C(=O)Nc1ncc(Cl)cn1)c1nncn21 (single isomer, unassigned) [Example 46, N-(5-Chloropyrimidin-2-yl)-6-methyl-7,8-dihydro-6H-cyclopenta[e][1,2,4] triazolo[4,3-a]pyridine-4-carboxamide] | 1 to 10
5 | CC1CCc2c1cc(C(=O)Nc1cnn(C)n1)c1nncn21 (single isomer, unassigned) [Example 61, 6-Methyl-N-(2-methyl-2H-1,2,3-triazol-4-yl)-7,8-dihydro-6H-cyclopenta[e][1,2,4] triazolo[4,3-a]pyridine-4-carboxamide] | 1 to 10
6 | CC(C)OC1CCc2c1cc(C(=O)Nc1ncc(F)cn1)c1nncn21 (single isomer, unassigned) [Example 51, N-(5-Fluoropyrimidin-2-yl)-6-isopropoxy-7,8-dihydro-6H-cyclopenta[e][1,2,4] triazolo[4,3-a]pyridine-4-carboxamide] | > 50
7 | CC1CCc2c1cc(C(=O)Nc1ccns1)c1nncn21 (single isomer, unassigned) [Example 38, N-(Isothiazol-5-yl)-6-methyl-7,8-dihydro-6H-cyclopenta[e][1,2,4] triazolo[4,3-a]pyridine-4-carboxamide] | 1 to 10
8 | Cc1cnc(NC(=O)c2cc3c(n4cnnc24)CCC3C)nc1 (single isomer, unassigned) [Example 28, 6-Methyl-N-(5-methylpyrimidin-2-yl)-7,8-dihydro-6H-cyclopenta[e][1,2,4]tria zolo[4,3-a]pyridine-4-carboxamide] | 10 to 50
9 | CC1CCc2c1cc(C(=O)Nc1ccns1)c1nncn21 (single isomer, unassigned) [Example 39, N-(Isothiazol-5-yl)-6-methyl-7,8-dihydro-6H-cyclopenta[e][1,2,4] triazolo[4,3-a]pyridine-4-carboxamide] | 1 to 10
10 | Cc1cnc(NC(=O)c2cc3c(n4cnnc24)CCC3C)nc1 (single isomer, unassigned) [Example 29, 6-Methyl-N-(5-methylpyrimidin-2-yl)-7,8-dihydro-6H-cyclopenta[e][1,2,4]tria zolo[4,3-a]pyridine-4-carboxamide] | 10 to 50
11 | CC1CCc2c1cc(C(=O)Nc1ncc(C(F)(F)F)cn1)c1nncn21 (single isomer, unassigned) [Example 26, 6-Methyl-N-(5-(trifluoromethyl)pyrimidin-2-yl)-7,8-dihydro-6H-cyclopenta[e][1,2,4] triazolo[4,3-a]pyridine-4-carboxamide] | 1 to 10
12 | CC1CCc2c1cc(C(=O)Nc1ncc(Cl)cn1)c1nncn21 (single isomer, unassigned) [Example 47, N-(5-Chloropyrimidin-2-yl)-6-methyl-7,8-dihydro-6H-cyclopenta[e][1,2,4] triazolo[4,3-a]pyridine-4-carboxamide] | 1 to 10
13 | CC1CCc2c1cc(C(=O)Nc1ccn(C)n1)c1nncn21 (single isomer, unassigned) [Example 63, 6-Methyl-N-(1-methyl-1H-pyrazol-3-yl)-7,8-dihydro-6H-cyclopenta[e][1,2,4] triazolo[4,3-a]pyridine-4-carboxamide] | 10 to 50
14 | CC1CCc2c1cc(C(=O)Nc1ccno1)c1nncn21 (single isomer, unassigned) [Example 45, N-(Isoxazol-5-yl)-6-methyl-7,8-dihydro-6H-cyclopenta[e][1,2,4] triazolo[4,3-a]pyridine-4-carboxamide] | 10 to 50
15 | CC1CCc2c1cc(C(=O)Nc1ccc(F)cn1)c1nncn21 (single isomer, unassigned) [Example 43, N-(5-Fluoropyridin-2-yl)-6-methyl-7,8-dihydro-6H-cyclopenta[e][1,2,4]triazolo[4,3-a]pyridine-4-carboxamide] | 1 to 10
16 | CC1CCc2c1cc(C(=O)Nc1ncccc1F)c1nncn21 (single isomer, unassigned) [Example 36, N-(3-Fluoropyridin-2-yl)-6-methyl-7,8-dihydro-6H-cyclopenta[e][1,2,4] triazolo[4,3-a]pyridine-4-carboxamide] | 1 to 10
17 | Cc1nnc2c(C(=O)Nc3ncc(F)cn3)cc3c(n12)CCC3C (single isomer, unassigned) [Example 52, N-(5-Fluoropyrimidin-2-yl)-1,6-dimethyl-7,8-dihydro-6H-cyclopenta[e][1,2,4] triazolo[4,3-a]pyridine-4-carboxamide] | > 50

Same assay, conditions: AhR-EGFP nuclear translocation in Jump-In T-REx HEK293 cells, 45 minutes incubation; numeric values; read-out: Rel EC50

Row | SMILES | EC50 [nM]
18 | CC1CCc2c1cc(C(=O)Nc1ccccn1)c1nncn21 (single isomer, unassigned) [Example 3] | 5.37
19 | C[C@H]1CCc2c1cc(C(=O)Nc1ncc(F)cn1)c1nncn21 [Example 5, (S)-N-(5-Fluoropyrimidin-2-yl)-6-methyl-7,8-dihydro-6H-cyclopenta[e][1,2,4]triazolo [4,3-a]pyridine-4-carboxamide] | 5.79
20 | CC1CCc2c1cc(C(=O)Nc1ccccn1)c1nccn21 (single isomer, unassigned) [Example 9, 6-Methyl-N-(pyridin-2-yl)-7,8-dihydro-6H-cyclopenta[e]imidazo[1,2-a]pyridine-4-carboxamide] | 3.37
21 | O=C(Nc1ncc(F)cn1)c1cc2ccccc2n2cnnc12 [Example 1, N-(5-Fluoropyrimidin-2-yl)-[1,2,4]triazolo[4,3-a]quinoline-4-carboxamide] | 3.1
22 | CC1CCc2c1cc(C(=O)Nc1ncc(F)cn1)c1nccn21 (single isomer, unassigned) [Example 13, N-(5-Fluoropyrimidin-2-yl)-6-methyl-7,8-dihydro-6H-cyclopenta[e]imidazo[1,2-a]pyridine-4-carboxamide] | 0.495
23 | O=C(Nc1ncc(F)cn1)c1cc2ccccc2n2ccnc12 [Example 2, N-(5-Fluoropyrimidin-2-yl)imidazo[1,2-a]quinoline-4-carboxamide] | 0.585
24 | CC1CCc2c1cc(C(=O)Nc1ncccn1)c1nncn21 (single isomer, unassigned) [Example 7, 6-Methyl-N-(pyrimidin-2-yl)-7,8-dihydro-6H-cyclopenta[e][1,2,4] triazolo[4,3-a]pyridine-4-carboxamide] | 11.1
25 | C[C@H]1CCc2c1cc(C(=O)Nc1ccccn1)c1nccn21 (single isomer, unassigned) [Example 10, 6-Methyl-N-(pyridin-2-yl)-7,8-dihydro-6H-cyclopenta[e]imidazo[1,2-a]pyridine-4-carboxamide] | 1.32

Reference: US20240199608A1 (Eli Lilly and Company, priority 2022, published 2024)
